Experimental data taken from patent US9303069B2, “Peptides for treating cancer” (University of Mississippi Medical Center, priority 2014, dated 2016).
Ends that are not written are not given here.

Tests used:
HOSE cells = assay type: cell-based, human; details: 48 h
Experimental: (§1) Thus, a peptide (hereafter IRIS peptide) composed of a cell/nucleus penetrating signal (FIG. 26) fused to BRCA1-IRIS intron 11 (FIG. 26) was synthesized. Equal numbers of HOSE, HOSE/IRIS, SKOV3, OVCAR3, OVCAR420 and OV-90 cells were grown in the presence of increasing concentrations of IRIS peptide for 48 hours.
(§2) Cell viability measurement. Cell viability under different experimental conditions was determined using the MTS assay […]. Briefly, SKOV3, OVACAR3, HOSE and HOSE/IRIS cells (2.5×10^4 cells per well) were seeded in 96 well plates and incubated overnight at 37° C. in 10% humidified CO2 atmosphere in varying concentrations of IRIS peptide, or inhibitors of ErbB2 (CP-724714), EGFR (Erlotinib), TrkB (K252a), JNK (SP600125), p38 (SB203580), ERK (PD98059) and PI3′K/AKT (LY294002) inhibitors for 24 hours at 37° C. Cell Titer 96® Aqueous (Promega, Madison, Wis., USA) was used to measure viability following manufactures instructions. Cell viability (%) was expressed as a ratio to control cells×100. Growth inhibition was also determined by manually counting cells in five different microscopic fields. Change in cell numbers (fold) was expressed as a ratio to control cells×100. All experiments were done in at least triplicates, three different times. * is p≦0.05, ** is p≦0.001 and *** is p≦0.0001.

HOSE/IRIS cells = assay type: cell-based, human; details: 48 h
Experimental: as §1, §2

OV-90 cells = assay type: cell-based, human; details: 48 h
Experimental: as §1, §2

OVCAR3 cells = assay type: cell-based, human; details: 48 h
Experimental: as §1, §2

OVCAR420 cells = assay type: cell-based, human; details: 48 h
Experimental: as §1, §2

SKOV3 cells = assay type: cell-based, human; details: 48 h
Experimental: as §1
To investigate the contribution of ErbB2 and TrkB to BRCA1-IRIS-induced cisplatin resistance, equal numbers of SKOV3 cells were either depleted from BRCA1-IRIS, ErbB2 or TrkB using specific siRNAs for 48 hours before they were (i) exposed to increasing concentrations of cisplatin for another 24 hours or (ii) exposed to IRIS peptide, ErbB2 inhibitor (CP-724714), TrkB inhibitor (K252a) or both for 24 hours, before they were exposed to increasing concentrations of cisplatin for another 24 hours.
as §2
Transfections of siRNA. siRNAs for human ErbB2 and TrkB were purchased from Ambion and Santa Cruz Biotechnology, USA. Custom synthesized siRNA against BRCA1 IRIS was used. siRNA against luciferase gene was used as the negative control. Sub-confluent cells were transfected in 6- or 96-well plates with ErbB2 (100 nM), TrkB (100 nM), BRCA1 IRIS (200 nM) or control siRNA using Oligofectamine™ reagent (GibcoBRL Inc, USA) following the instructions of the manufacturer. Protein expression was tested by Western blot after 72 hours of siRNA transfection. Cell viability was evaluated by MTS or by manual counting after 72 hours of siRNA exposure alone or in combination with cisplatin exposure (for an additional 24 hours).

[1] = tested on: HOSE, HOSE/IRIS, SKOV3, OVCAR3, OVCAR420 and OV-90 cells; assay: Survival of ovarian cell lines after siRNA transfection followed by IRIS peptide; assay type: cell-based, human; details: then increasing concentrations of IRIS peptide 24 hours
Experimental: To establish the specificity of this peptide further, it was assumed that it would not affect cells already depleted from BRCA1-IRIS. To do that HOSE, HOSE/IRIS, SKOV3, OVCAR3, OVAC420 and OV-90 cells were first transfected with luciferase (as control, hereafter siLuc) or BRCA1-IRIS (hereafter siIRIS) specific siRNAs for 48 hours before they were exposed to increasing concentrations of IRIS peptide for another 24 hours.
Cell viability measurement. Cell viability under different experimental conditions was determined using the MTS assay or cell. […] Cell viability (%) was expressed as a ratio to control cells×100. Growth inhibition was also determined by manually counting cells in five different microscopic fields. Change in cell numbers (fold) was expressed as a ratio to control cells×100. […]
Transfections of siRNA. siRNAs for human ErbB2 and TrkB were purchased from Ambion and Santa Cruz Biotechnology, USA. […] Cell viability was evaluated by MTS or by manual counting after 72 hours of siRNA exposure alone or in combination with cisplatin exposure (for an additional 24 hours).

SKOV3 tumors = assay: In vivo efficacy on established SKOV3 tumors; parameters: species or system mice; details: day 16; cisplatin 5 mg/kg i.p., IRIS peptide 10 mg/kg i.t., every third day, four times
Experimental: Further, to determine whether IRIS peptide could have any efficacy in vivo and/or whether it sensitizes ovarian tumors to low, clinically relevant concentrations of cisplatin, four sets of nude mice (n=6 each) were subcutaneously injected with SKOV3 cells. Ten days later, when tumors were ˜250 mm^3 in volume, one group was treated with controls (i.e. DMSO delivered i.p. and scrambled peptide delivered directly into the tumors, i.t.), a second group was treated with cisplatin (5 mg/kg, delivered i.p.), a third group was treated with IRIS peptide (10 mg/kg, injected i.t.), and a fourth group was treated with both. Treatments were delivered every third day for a total of four times. For the next 16 days, tumors were measured daily with a caliper. Mice were then sacrificed, and their tumors or their remnants were taken.
Efficacy of BRCA1-IRIS inhibitory peptide, in vivo. Six to eight week old female athymic SCID mice were injected subcutaneously with 2.5×10^6 SKOV3 cells in the flank region. Their respective tumor growth was measured with a caliper. When the tumor volume reached 250 mm^3, mice were randomly grouped into four groups. One group (control) was treated with scrambled peptide (10 mg/kg) and DMSO. A second was treated with BRCA1-IRIS inhibitory peptide (10 mg/kg, body weight). […] Change in tumor volume was measured to monitor the efficacy of the treatment. […]

HME/IRIS cells = details: 48 h
Experimental: All cell lines were exposed to increasing concentrations of paclitaxel and BRCA1-IRIS expression, and cells' viability was then measured.
Cell viability measurement. Cell viability under different experimental conditions was determined using the MTS assay. Briefly, cells (2.5×10^4 cells per well) were seeded in 96-well plates and incubated overnight at 37° C. in 10% humidified CO2 atmosphere. The next day they were incubated with varying concentration of peptide, or inhibitors for 24 hours at 37° C. Cell viability was determined using cell Titer 96® Aqueous (Promega, Madison, Wis., USA) following manufacturer's instructions. Cell viability (%) was expressed as a ratio of treated cells to control cells×100. […] Each experiment was done in triplicate, repeated three separate times.

RRIRPRPPRLPRPRPRPLPFPRPGIGTRFLCLPQSIYRSELNVYAFGEHILQISKYS [IRIS peptide]
IC50 (HOSE cells): ~1 µM
IC50 (HOSE/IRIS cells): ~10 µM
IC50 (OV-90 cells): ~5 µM
IC50 (OVCAR3 cells): ~10 µM
IC50 (OVCAR420 cells): ~1 µM
IC50 (SKOV3 cells): ~10 µM
effect of IRIS peptide on survival of BRCA1-IRIS silenced cells ([1]; siIRIS 48 hours): not affected by the peptide at any of the concentrations tested
effect of IRIS peptide on survival of siLuc-transfected cells ([1]; siLuc 48 hours): gradual decrease in the survival of all cell lines
reduction in tumor size (SKOV3 tumors): ~50%
IC50 (HME/IRIS cells): ~5 µM
